Activity calls are given as the source filed them.
Assays:
[1] = microbe, parasite or virus in culture; format: functional; details: Mycobacterium tuberculosis
[2] = target: T1, Replicative DNA helicase DnaB (Mycobacterium tuberculosis, UniProt P9WMR3); test: DnaB intein splicing inhibitors, dose response, biochemical, cell-free fluorescence (AID 449749); format: functional
T1 sequence (P9WMR3 whole entry): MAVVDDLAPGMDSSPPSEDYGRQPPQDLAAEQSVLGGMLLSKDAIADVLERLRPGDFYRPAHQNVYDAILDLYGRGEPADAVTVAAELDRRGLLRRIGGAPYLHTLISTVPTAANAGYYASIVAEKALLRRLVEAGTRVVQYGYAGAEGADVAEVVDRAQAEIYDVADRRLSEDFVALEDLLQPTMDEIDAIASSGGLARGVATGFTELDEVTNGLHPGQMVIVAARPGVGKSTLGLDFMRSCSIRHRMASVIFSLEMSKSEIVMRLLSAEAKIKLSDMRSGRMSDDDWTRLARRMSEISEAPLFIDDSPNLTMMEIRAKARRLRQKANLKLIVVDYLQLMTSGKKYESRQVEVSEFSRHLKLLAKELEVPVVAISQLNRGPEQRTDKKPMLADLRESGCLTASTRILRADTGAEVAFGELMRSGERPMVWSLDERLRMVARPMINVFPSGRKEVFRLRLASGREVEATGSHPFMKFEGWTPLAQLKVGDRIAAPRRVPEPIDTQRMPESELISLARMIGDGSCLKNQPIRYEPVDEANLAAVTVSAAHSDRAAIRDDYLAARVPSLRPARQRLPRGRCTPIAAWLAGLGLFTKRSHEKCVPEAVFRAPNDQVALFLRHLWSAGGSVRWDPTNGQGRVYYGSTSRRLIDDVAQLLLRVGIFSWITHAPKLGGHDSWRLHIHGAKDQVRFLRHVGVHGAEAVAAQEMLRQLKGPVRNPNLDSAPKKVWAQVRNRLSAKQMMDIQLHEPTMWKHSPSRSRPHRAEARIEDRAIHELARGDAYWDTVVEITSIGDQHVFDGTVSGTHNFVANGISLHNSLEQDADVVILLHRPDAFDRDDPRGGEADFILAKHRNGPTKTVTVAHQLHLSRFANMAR

[3] = target: T2, Protein RecA (Mycobacterium tuberculosis, UniProt P9WHJ3); test: Fluorescence Cell-Free Homogeneous Dose Retest to Identify Inhibitors of RecA-Intein Splicing Activity. [Related pubchem assays (depositor defined):AID2097, AID2223, AID489010, AID492950]; format: functional
T2 sequence (P9WHJ3 whole entry): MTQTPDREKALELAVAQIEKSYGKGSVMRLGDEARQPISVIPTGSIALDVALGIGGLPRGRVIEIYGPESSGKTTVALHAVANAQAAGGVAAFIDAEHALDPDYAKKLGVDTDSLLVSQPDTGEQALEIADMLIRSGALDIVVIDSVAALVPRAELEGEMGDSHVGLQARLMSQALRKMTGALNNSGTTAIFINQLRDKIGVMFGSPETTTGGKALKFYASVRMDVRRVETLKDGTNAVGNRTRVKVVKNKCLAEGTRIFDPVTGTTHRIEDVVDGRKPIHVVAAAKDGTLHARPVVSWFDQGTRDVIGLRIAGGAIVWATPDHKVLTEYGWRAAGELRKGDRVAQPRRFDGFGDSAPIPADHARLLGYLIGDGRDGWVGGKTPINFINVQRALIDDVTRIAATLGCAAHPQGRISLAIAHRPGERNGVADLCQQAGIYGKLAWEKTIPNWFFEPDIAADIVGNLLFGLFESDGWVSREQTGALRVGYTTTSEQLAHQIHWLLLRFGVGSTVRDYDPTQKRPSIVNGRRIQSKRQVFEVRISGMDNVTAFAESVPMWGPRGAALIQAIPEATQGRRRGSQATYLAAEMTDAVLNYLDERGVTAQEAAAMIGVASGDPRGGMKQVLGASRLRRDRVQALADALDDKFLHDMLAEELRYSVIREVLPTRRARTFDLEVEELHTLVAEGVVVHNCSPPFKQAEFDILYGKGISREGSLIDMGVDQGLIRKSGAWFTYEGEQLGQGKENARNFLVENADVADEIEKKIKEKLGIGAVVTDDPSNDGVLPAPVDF

[4] = Luminescence Cell-Based Dose Retest to Confirm Inhibitors of Cancer Stem Cells. [Related pubchem assays (depositor defined):AID2717, AID2721]; format: functional; details: Homo sapiens
[5] = test system: BJ; test: cells; format: functional, cell-based; details: Homo sapiens
[6] = test system: BJ; test: BJ-TERT-LT-ST fibroblast viability loss – cell-based, RAS-independent, luminescence, dose response (AID 1935); format: functional; details: Homo sapiens;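 note: BJ fibroblasts immortalized with TERT plus LT and ST oncogenes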
[7] = test system: BJ; test: BJ-TERT fibroblast viability loss – cell-based, RAS-independent, luminescence, dose response (AID 1933); format: functional; details: Homo sapiens
[8] = DRD fibroblast viability loss – cell-based, non-viral oncogenic, luminescence, dose response (AID 1934); format: functional; details: Homo sapiens
[9] = NIH-3T3 fibroblast cytotoxicity, dose response, cytotoxicity control, cell-based, fluorescence, Alamar Blue, secondary assay (AID 2327); format: functional;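 note: NIH-3T3 mouse fibroblasts cultured with fluconazole at 8 µg/mL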
[10] = target: T3, Streptokinase A (Streptococcus pyogenes serotype M1, UniProt P10520); test: viability-normalized secreted streptokinase activity reduction – plasminogen activation absorbance, OD405, dose response (AID 1914); format: functional, Streptococcus pyogenes M1 GAS;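 note: secreted streptokinase activity via plasminogen activation per viability signal from cell pellet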
T3 sequence (P10520 whole entry): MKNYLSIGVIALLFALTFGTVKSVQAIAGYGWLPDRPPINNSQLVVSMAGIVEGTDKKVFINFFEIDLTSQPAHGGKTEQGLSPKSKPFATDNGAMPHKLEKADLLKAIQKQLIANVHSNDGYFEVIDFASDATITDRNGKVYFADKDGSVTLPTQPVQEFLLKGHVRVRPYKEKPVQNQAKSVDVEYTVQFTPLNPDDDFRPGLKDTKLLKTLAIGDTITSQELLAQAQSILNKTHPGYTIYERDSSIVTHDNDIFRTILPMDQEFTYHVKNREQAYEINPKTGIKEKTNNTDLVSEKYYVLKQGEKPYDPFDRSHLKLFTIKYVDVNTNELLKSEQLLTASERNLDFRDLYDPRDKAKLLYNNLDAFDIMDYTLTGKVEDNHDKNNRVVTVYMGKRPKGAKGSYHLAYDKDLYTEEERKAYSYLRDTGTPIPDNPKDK

[11] = test system: Streptococcus; test: GAS UMAA2166 growth inhibition – luminescence, BacTiterGlo, counter-screen for streptokinase expression inhibitor project, dose response (AID 1915); format: functional, organism-based;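 note: potency for reduction of bacterial viability or growth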
[12] = NIH3T3 cell viability loss – ATP luminescence, mouse fibroblasts, counter-screen, dose response (AID 2010); format: functional, cell-based;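 note: cells exposed to compound for about 90 hours before reading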
[13] = Trypanosoma cruzi growth suppression in host cells – NIH3T3 host cells, beta-gal luminescence, confirmation (AID 2044); format: functional, cell-based;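 note: intracellular parasites grown in NIH/3T3 mouse fibroblasts as host cells; luminescent beta-galactosidase reporter signal from transgenic T. cruzi replicating inside host cells; inhibitors lower the luminescence signal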
[14] = test system: Streptococcus sp. 'group A'; test: Streptococcus pyogenes SK(-)GAS viability under kanamycin – luminescence, BacTiterGlo, confirmation, counter-screen for streptokinase expression inhibitor project, dose response (AID 1900); format: functional, organism-based
[15] = fluconazole-exposed Candida albicans growth modulators – fluorescence, retest, confirmation (AID 2467); format: functional, cell-based
[16] = loss of viability in HepG2 cells – cell-based, CellTiter-Glo, cherry-picked, cytotoxicity control for Shn3 inhibitor project, dose response (AID 624134); format: functional
[17] = reduction of Shn3 3'UTR-driven luciferase in osteoblasts – cell-based, Clone20 osteoblasts, firefly luciferase, cherry-picked, dose response (AID 624132); format: functional;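 note: firefly luciferase luminescence from reporter carrying the Shn3 3'UTR in osteoblasts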
[18] = non-specific 3'UTR reporter inhibition in Clone20-Shn3RL – cell-based, Renilla luciferase, cherry-picked, counter-screen for Shn3 inhibitor project, dose response (AID 624133); format: functional
[19] = HIV-1 AD8 envelope cell-cell fusion blockers – cherry-pick, dose response (AID 652062); format: functional, cell-based;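 note: luciferase signal from cell-cell fusion driven by HIV-1 clade B AD8 Env; potency is for inhibitors of fusion seen as a drop in luminescence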
[20] = Luminescence Cell-Based Dose Confirmation HTS to Identify Activators of 5'UTR Stem-Loop Driven Alpha-Synuclein mRNA Translation in H4 Neuroglioblastoma Cells. [Related pubchem assays: 1829 (Project Summary), 1814 (Primary HTS)]; format: functional
[21] = Luminescence Cell-Based Dose Response HTS to Identify Activators of Luciferase Translation or Activity in H4 […] Cells. [Related pubchem assays: 1829 (Project Summary), 1814 (Primary HTS)]; format: functional
[22] = test system: H4; test: Luminescence Cell-Based Dose Response HTS to Identify Activators of 5'UTR Stem-Loop Driven Prion Protein mRNA Translation in H4 Neuroglioblastoma Cells. [Related pubchem assays: 1829 (Project Summary), 1814 (Primary HTS)]; format: functional; details: Homo sapiens
[23] = target: Luciferin 4-monooxygenase (Photinus pyralis, UniProt P08659); test: inhibition of purified Photinus pyralis luciferase – biochemical, luminescence, dose response (AID 1891)
[24] = Luminescence Cell-Based Dose Confirmation HTS to Identify Inhibitors of Platelet Dense Granule Release. [Related pubchem assays: 1663 (Primary HTS), 1678 (Summary of Project)]; format: functional
[25] = target: Cytochrome P450 3A4 (Homo sapiens, UniProt P08684); details: Potency;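 note: confirmatory qHTS run detecting inhibitors and substrates of CYP3A4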
[26] = target: Genome polyprotein (dengue virus type 2, UniProt P29990); test: flavivirus cap methylation enzyme inhibition – biochemical, confirmation dose response, primary screen (AID 588689); format: functional
[27] = target: T4, Polyadenylate-binding protein 1 (Homo sapiens, UniProt P11940); test: MLLE binding blockers, Cy5 peptide tracer – biochemical, fluorescence polarization, Cy5-PAM2 peptide, secondary, miRNA deadenylation inhibitor project, dose response (AID 602260); format: functional; details: read-out: IC50_Mean
[28] = target: T4, Polyadenylate-binding protein 1; test: MLLE domain peptide-binding blockers, IC50 – biochemical, fluorescence polarization, FITC-PAM2 peptide, dose response (AID 602259); format: functional; details: read-out: IC50_Mean
[29] = blockers of HIV-1 envelope-mediated cell-cell fusion – cherry-pick, dose response (AID 652057); format: functional, cell-based

Cytochrome P450 3A4, sequence (P08684 whole entry): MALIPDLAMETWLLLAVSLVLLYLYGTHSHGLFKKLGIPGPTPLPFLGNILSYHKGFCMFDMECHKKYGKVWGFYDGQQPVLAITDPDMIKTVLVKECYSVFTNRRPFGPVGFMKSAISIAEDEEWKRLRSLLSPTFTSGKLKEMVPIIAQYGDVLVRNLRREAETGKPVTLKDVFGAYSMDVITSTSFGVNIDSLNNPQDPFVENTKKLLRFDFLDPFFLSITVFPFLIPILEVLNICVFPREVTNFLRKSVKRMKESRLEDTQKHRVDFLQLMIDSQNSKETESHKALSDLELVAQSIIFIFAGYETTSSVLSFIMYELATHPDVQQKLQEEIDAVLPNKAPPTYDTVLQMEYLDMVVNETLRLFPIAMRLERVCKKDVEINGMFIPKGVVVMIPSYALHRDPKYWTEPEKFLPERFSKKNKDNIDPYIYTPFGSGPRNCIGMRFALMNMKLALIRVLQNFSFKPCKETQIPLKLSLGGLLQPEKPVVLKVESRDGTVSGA
T4 sequence (P11940 whole entry, the tested form may be a part): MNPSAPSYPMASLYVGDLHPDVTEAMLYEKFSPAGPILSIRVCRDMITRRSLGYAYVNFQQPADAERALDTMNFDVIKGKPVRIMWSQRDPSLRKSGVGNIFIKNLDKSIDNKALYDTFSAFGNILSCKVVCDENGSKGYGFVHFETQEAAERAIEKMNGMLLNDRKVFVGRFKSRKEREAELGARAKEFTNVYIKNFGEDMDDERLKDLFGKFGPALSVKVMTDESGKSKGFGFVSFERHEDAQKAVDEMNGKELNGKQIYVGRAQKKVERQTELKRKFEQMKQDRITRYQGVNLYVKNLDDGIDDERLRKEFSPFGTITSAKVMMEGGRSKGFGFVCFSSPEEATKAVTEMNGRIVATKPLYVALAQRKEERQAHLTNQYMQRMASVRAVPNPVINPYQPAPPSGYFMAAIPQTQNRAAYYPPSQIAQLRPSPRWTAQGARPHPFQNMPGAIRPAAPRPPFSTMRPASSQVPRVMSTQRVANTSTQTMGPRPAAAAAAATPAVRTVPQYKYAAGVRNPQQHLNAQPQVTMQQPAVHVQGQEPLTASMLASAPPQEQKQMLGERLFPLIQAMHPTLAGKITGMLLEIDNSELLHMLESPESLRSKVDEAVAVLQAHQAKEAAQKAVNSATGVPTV
Luciferin 4-monooxygenase, sequence (P08659 whole entry): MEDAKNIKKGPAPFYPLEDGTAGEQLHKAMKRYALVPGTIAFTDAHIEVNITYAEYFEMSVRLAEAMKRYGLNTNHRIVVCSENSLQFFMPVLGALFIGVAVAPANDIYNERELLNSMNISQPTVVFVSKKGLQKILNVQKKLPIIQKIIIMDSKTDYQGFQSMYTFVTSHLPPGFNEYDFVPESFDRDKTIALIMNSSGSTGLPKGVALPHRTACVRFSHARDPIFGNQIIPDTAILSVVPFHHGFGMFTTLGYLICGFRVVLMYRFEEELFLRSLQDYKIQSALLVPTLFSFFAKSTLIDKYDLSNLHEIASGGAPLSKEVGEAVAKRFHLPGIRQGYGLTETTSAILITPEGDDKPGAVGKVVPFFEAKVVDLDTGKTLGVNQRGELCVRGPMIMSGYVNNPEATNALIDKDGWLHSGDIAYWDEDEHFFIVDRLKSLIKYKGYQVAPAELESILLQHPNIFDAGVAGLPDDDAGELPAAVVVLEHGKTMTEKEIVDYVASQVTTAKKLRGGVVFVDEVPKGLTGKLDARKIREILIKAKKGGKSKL
Genome polyprotein, sequence (P29990 2492-3391 limits assumed): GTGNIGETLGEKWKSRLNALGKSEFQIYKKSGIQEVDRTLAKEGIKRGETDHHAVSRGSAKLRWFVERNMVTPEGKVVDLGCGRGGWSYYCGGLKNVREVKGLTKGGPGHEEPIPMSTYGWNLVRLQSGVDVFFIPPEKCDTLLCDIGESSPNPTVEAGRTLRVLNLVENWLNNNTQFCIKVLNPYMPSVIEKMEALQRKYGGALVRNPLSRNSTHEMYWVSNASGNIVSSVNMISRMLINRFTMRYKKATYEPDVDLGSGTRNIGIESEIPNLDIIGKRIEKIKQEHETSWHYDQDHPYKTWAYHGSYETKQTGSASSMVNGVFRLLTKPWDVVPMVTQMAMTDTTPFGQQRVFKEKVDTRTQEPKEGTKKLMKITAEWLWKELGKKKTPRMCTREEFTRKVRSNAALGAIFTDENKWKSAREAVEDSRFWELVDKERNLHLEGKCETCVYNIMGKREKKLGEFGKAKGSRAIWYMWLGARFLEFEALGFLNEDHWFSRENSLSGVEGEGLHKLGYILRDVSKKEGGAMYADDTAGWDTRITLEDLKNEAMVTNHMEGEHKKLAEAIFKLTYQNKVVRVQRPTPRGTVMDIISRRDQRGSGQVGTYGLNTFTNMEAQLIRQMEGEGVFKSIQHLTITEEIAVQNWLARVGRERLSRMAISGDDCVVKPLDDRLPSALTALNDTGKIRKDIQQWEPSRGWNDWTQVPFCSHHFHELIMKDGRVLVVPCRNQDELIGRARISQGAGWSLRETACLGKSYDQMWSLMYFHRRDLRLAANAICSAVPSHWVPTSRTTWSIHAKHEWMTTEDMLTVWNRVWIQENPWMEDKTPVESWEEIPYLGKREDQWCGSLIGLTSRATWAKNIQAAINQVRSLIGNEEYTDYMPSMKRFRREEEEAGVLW

O=C(Nc1ccc(Cl)cc1)N1CCN(c2ccc3nnc(-c4ccc(F)cc4)n3n2)CC1
CC50 [1]: 19.3 µM (active)

CCOC(=O)c1c(CC(C)C)csc1NC(=O)CCl
AC50 [2]: 9.8 µM (active) | CC50 [1]: > 40 µM (active) | EC50 [3]: 2.39 µM (active)

COc1ccc(C2(c3ccc(OC)cc3)NC(=O)N(CC(=O)Nc3ccc(OC(F)F)cc3)C2=O)cc1
CC50 [1]: 36.2 µM (active)

CCC1=Nc2cc(C(=O)NCc3cccnc3)ccc2Sc2ccc(C)cc21
AC50 [4]: 0.493 µM (active) | EC50 [5]: 101 µM (active) | EC50 [6]: 16.6 µM (active) | EC50 [7]: 4.48 µM (active) | EC50 [8]: 3.06 µM (active)

COc1ccc(-c2cc(C3CCN(Cc4cccc(C(F)(F)F)c4)CC3)[nH]n2)cc1
EC50 [9]: > 160 µM (inactive) | EC50 [10]: > 150 µM (not active) | EC50 [11]: > 150 µM (not active) | EC50 [12]: > 60 µM (not active) | EC50 [13]: 0.626 µM (active) | EC50 [14]: 25.1 µM (active) | CC50 [1]: 35.5 µM (active) | EC50 [15]: > 38 µM (not active)

COc1cc2ccnc(Cc3cccc(OC)c3OC)c2cc1OC
AC50 [16]: 40.7 µM (active) | AC50 [17]: 4.64 µM (active) | AC50 [18]: 5.35 µM (active)

Cc1ccc(/C=C2\SC(=S)N(CCC(=O)N3CCCCC3)C2=O)cc1
EC50 [5]: > 150 µM (inconclusive) | EC50 [6]: > 150 µM (not active) | EC50 [7]: > 150 µM (not active) | EC50 [8]: > 150 µM (not active)

COc1cc2[nH]c3c(N4CCN(c5ccccn5)CC4)ncnc3c2cc1OC
CC50 [1]: 11.1 µM (active)

CCC(NCc1ccc(F)cc1)=C1C(=O)N(C)C(=O)N(C)C1=O
AC50 [19]: 12.2 µM (active)

O=C(/C=C/c1ccc(O)c([N+](=O)[O-])c1)c1ccc2ccccc2c1
EC50 [20]: 16.6 µM (active) | EC50 [21]: 14.5 µM (active) | EC50 [22]: 17.9 µM (active) | CC50 [1]: > 40 µM (active)

COc1cccc(Nc2ccc([N+](=O)[O-])c3nonc23)c1
CC50 [1]: > 40 µM (active)

COc1ccc(CNC(=O)c2cc3c(C)nc4ccccc4c3o2)c(OC)c1
AC50 [16]: 3.5 µM (active) | AC50 [17]: 3.22 µM (active) | EC50 [23]: > 112 µM (not active) | AC50 [18]: 2.47 µM (active) | EC50 [24]: > 112 µM (not active)

Cc1nc(N2CCOCC2)c2nc(-c3ccccc3)n(CCN3CCOCC3)c2n1
AC50 [25]: 10 µM (inconclusive)

CCCCNc1nc(C)nc2c1nc(-c1ccccc1)n2CCN(C)C
AC50 [25]: 15.8 µM (inconclusive)

Oc1c(CN2CCOCC2)cc(CN2CCOCC2)c(O)c1O
IC50 [26]: 15.2 µM (active)

Cc1nn(-c2ccccc2)c(C)c1C(=O)OC(C)C(=O)NC1CCCCC1 (stereo not given)
AC50 [16]: 41.8 µM (active) | AC50 [17]: 8.19 µM (active) | AC50 [18]: 25.8 µM (active)

Nc1nc(N)c2cc(S(=O)(=O)c3cccc(C(F)(F)F)c3)ccc2n1
AC50 [16]: 5.52 µM (active) | AC50 [17]: 5.22 µM (active) | AC50 [18]: 16.9 µM (active)

COc1cccc(NC(=S)N/N=C2/CCCCc3ccccc32)c1
EC50 [20]: 7.09 µM (active) | EC50 [21]: 8.02 µM (active) | EC50 [22]: 33.6 µM (active) | IC50 [27]: > 66 µM (inactive) | IC50 [28]: > 66 µM (inactive)

COc1ccc(NC(=O)Nc2ccc3c(c2)C(=O)N([C@H](C)CO)C[C@H](C)[C@H](CN(C)S(=O)(=O)c2ccc(C)cc2)O3)cc1
AC50 [19]: 11.2 µM (active) | AC50 [29]: 3.61 µM (active)

COc1cc(C(=O)OC2CC[C@]3(C)C4CCC5[C@]6(O)CC(O)[C@]7(O)C(CN8CC(C)CCC8[C@]7(C)O)[C@]6(O)C[C@@]53O[C@]24O)cc(OC)c1OC (stereo not given in full)
AC50 [25]: 20 µM (inconclusive)

OCC(O)/C=N/Nc1nc(Nc2ccccc2)nc(Nc2ccccc2)n1 (stereo not given)
CC50 [1]: > 40 µM (active)

Source: ChEMBL document CHEMBL1201862, “PubChem BioAssay data set” (2004)
